What was measured:
human σ1 receptor = target: T1, human σ1 receptor (Homo sapiens, UniProt Q99720); experiment: Human σ1 receptor radioligand assay; details: transfected HEK-293 membranes, 5 nM [3H](+)-pentazocine, 37° C. 120 minutes; + may also stand for 1-50% inhibition at 1 or 10 μM; read-out: Binding σ-1 Ki
T1 construct: expressed in transfected cells; host or cells: HEK-293
Method: Human σ1 Receptor Radioligand Assay
Transfected HEK-293 membranes (7 μg) were incubated with 5 nM of [^3H](+)-pentazocine in assay buffer containing Tris-HCl 50 mM at pH 8. NBS (non-specific binding) was measured by adding 10 μM haloperidol. The binding of the test compound was measured at either one concentration (% inhibition at 1 or 10 μM) or five different concentrations to determine affinity values (Ki). Plates were incubated at 37° C. for 120 minutes. After the incubation period, the reaction mix was then transferred to MultiScreen HTS, FC plates (Millipore), filtered and plates were washed 3 times with ice-cold 10 mM Tris-HCL (pH7.4). Filters were dried and counted at approximately 40% efficiency in a MicroBeta scintillation counter (Perkin-Elmer) using EcoScint liquid scintillation cocktail.

human σ2/TMEM97 receptor = target: T2, human σ2/TMEM97 receptor (Homo sapiens, UniProt Q5BJF2); experiment: Binding assay to human σ2/TMEM97 receptor; details: transfected HEK-293 membranes, 10 nM [3H]-DTG, 25° C. 120 minutes; + may also stand for 1-50% inhibition at 1 or 10 μM; read-out: Binding σ-2 Ki
T2 construct: expressed in transfected cells; host or cells: HEK-293
Method: Binding Assay to Human σ2/TMEM97 Receptor
Transfected HEK-293 membranes (15 μg) were incubated with 10 nM [^3H]-1,3-Di-o-tolylguanidine (DTG) in assay buffer containing Tris-HCl 50 mM at pH 8.0. NSB (non-specific binding) was measured by adding 10 μM haloperidol. The binding of the test compound was measured at either one concentration (% inhibition at 1 or 10 μM) or five different concentrations to determine affinity values (Ki). Plates were incubated at 25° C. for 120 minutes. After the incubation period, the reaction mix was transferred to MultiScreen HTS, FC plates (Millipore), filtered and washed 3 times with ice-cold 10 mM Tris-HCL (pH 8.0). Filters were dried and counted at approximately 40% efficiency in a MicroBeta scintillation counter (Perkin-Elmer) using EcoScint liquid scintillation cocktail.

T1 sequence (Q99720 whole entry): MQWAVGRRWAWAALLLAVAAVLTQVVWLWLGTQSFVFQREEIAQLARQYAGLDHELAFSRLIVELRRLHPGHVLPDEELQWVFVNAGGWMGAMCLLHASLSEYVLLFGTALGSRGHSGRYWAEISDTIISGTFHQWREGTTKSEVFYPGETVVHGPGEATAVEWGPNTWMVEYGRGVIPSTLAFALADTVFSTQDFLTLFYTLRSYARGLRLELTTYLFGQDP
T2 sequence (Q5BJF2 whole entry): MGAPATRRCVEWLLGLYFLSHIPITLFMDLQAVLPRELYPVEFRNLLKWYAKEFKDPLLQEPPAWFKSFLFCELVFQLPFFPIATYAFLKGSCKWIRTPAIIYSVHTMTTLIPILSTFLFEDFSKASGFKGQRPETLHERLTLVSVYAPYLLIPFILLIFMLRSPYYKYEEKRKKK

Structure (SMILES)	Ki (human σ1 receptor) [nM]	Ki (human σ2/TMEM97 receptor) [nM]
CN([C@@H]1CCN(Cc2ccccc2)C1)S(=O)(=O)c1ccc(N2CCOCC2)nc1 [Example 5, (R)-N-(1-Benzylpyrrolidin-3-yl)-N-methyl-6-morpholinopyridine-3-sulfonamide]	< 100	> 1000
O=S(=O)(NC1CCN(Cc2ccc(Cl)cc2)CC1)c1ccc(N2CCOCC2)nc1 [Example 10, N-(1-(4-Chlorobenzyl)piperidin-4-yl)-6-morpholinopyridine-3-sulfonamide]	< 100	> 1000
N#Cc1ccc(CN2CCC(NS(=O)(=O)c3ccc(N4CCOCC4)nc3)CC2)cc1 [Example 11, N-(1-(4-Cyanobenzyl)piperidin-4-yl)-6-morpholinopyridine-3-sulfonamide]	< 100	> 1000
CN(Cc1ccccc1)C1CCN(S(=O)(=O)c2ccc(N3CCOCC3)nc2)CC1 [Example 16, N-Benzyl-N-methyl-1-((6-morpholinopyridin-3-yl)sulfonyl)piperidin-4-amine]	> 1000	100 to 500
CN(Cc1ccccc1)[C@H]1CCN(S(=O)(=O)c2ccc(N3CCOCC3)nc2)C1 [Example 17, (S)-N-Benzyl-N-methyl-1-((6-morpholinopyridin-3-yl)sulfonyl)pyrrolidin-3-amine]	< 100	> 1000
CN(Cc1ccccc1)[C@H]1CC[C@H](NS(=O)(=O)c2ccc(N3CCOCC3)nc2)CC1 [Example 18, N-((1r,4r)-4-(Benzyl(methyl)amino)cyclohexyl)-6-morpholinopyridine-3-sulfonamide]	> 1000	< 100
CN(Cc1ccccc1)[C@H]1CC[C@@H](NS(=O)(=O)c2ccc(N3CCOCC3)nc2)CC1 [Example 19, N-((1s,4s)-4-(Benzyl(methyl)amino)cyclohexyl)-6-morpholinopyridine-3-sulfonamide]	> 1000	< 100
C[C@@H]1CN(c2ccc(S(=O)(=O)N[C@H]3CCN(Cc4ccccc4)C3)cn2)C[C@H](C)O1 [Example 20, N—((S)-1-Benzylpyrrolidin-3-yl)-6-((2R,6S)-2,6-dimethylmorpholino)pyridine-3-sulfonamide]	< 100	> 1000
CN(C)c1ccc(S(=O)(=O)N[C@H]2CCN(Cc3ccccc3)C2)cn1 [Example 21, (S)-N-(1-Benzylpyrrolidin-3-yl)-6-(dimethylamino) pyridine-3-sulfonamide]	< 100	> 1000
COC1CCN(c2ccc(S(=O)(=O)N[C@@H]3CCN(Cc4ccccc4)C3)cn2)CC1 [Example 26, (R)-N-(1-Benzylpyrrolidin-3-yl)-6-(4-methoxypiperidin-1-yl)pyridine-3-sulfonamide]	500 to 1000	> 1000
O=S(=O)(N[C@@H]1CCN(Cc2ccccc2)C1)c1ccc(N2[C@@H]3CC[C@H]2COC3)nc1 [Example 27, N-((R)-1-Benzylpyrrolidin-3-yl)-6-((1R,5S)-3-oxa-8-azabicyclo [3.2.1]octan-8-yl)pyridine-3-sulfonamide]		> 1000

Next, values leading:

Ki (human σ1 receptor) [nM]	Ki (human σ2/TMEM97 receptor) [nM]	Structure (SMILES)
< 100	> 1000	O=S(=O)(N[C@H]1CCN(Cc2ccccc2)C1)c1ccc(N2CCOCC2)nc1 [Example 1, (S)—N-(1-Benzylpyrrolidin-3-yl)-6-morpholinopyridine-3-sulfonamide]
< 100	> 1000	O=S(=O)(NC1CCN(Cc2ccccc2)CC1)c1ccc(N2CCOCC2)nc1 [Example 2, N-(1-Benzylpiperidin-4-yl)-6-morpholinopyridine-3-sulfonamide]
< 100	> 1000	O=S(=O)(N[C@@H]1CCN(Cc2ccccc2)C1)c1ccc(N2CCOCC2)nc1 [Example 3, (R)-N-(1-Benzylpyrrolidin-3-yl)-6-morpholinopyridine-3-sulfonamide]
< 100	> 1000	CN([C@H]1CCN(Cc2ccccc2)C1)S(=O)(=O)c1ccc(N2CCOCC2)nc1 [Example 4, (S)-N-(1-Benzylpyrrolidin-3-yl)-N-methyl-6-morpholinopyridine-3-sulfonamide]
< 100	500 to 1000	C[C@H]1CN(Cc2ccccc2)C[C@@H]1NS(=O)(=O)c1ccc(N2CCOCC2)nc1 [Example 6, N-((3R,4S)-1-Benzyl-4-methylpyrrolidin-3-yl)-6-morpholinopyridine-3-sulfonamide]
< 100	> 1000	O=S(=O)(NC1CCN(Cc2ccc(F)cc2)CC1)c1ccc(N2CCOCC2)nc1 [Example 7, N-(1-(4-Fluorobenzyl)piperidin-4-yl)-6-morpholinopyridine-3-sulfonamide]
< 100	> 1000	O=S(=O)(NC1CCN(Cc2cccc(F)c2)CC1)c1ccc(N2CCOCC2)nc1 [Example 8, N-(1-(3-Fluorobenzyl)piperidin-4-yl)-6-morpholinopyridine-3-sulfonamide]
500 to 1000	> 1000	N#Cc1cccc(CN2CCC(NS(=O)(=O)c3ccc(N4CCOCC4)nc3)CC2)c1 [Example 9, N-(1-(3-Cyanobenzyl)piperidin-4-yl)-6-morpholinopyridine-3-sulfonamide]
> 1000	< 100	O=S(=O)(c1ccc(N2CCOCC2)nc1)N1CCC2(CCN(Cc3ccccc3)CC2)CC1 [Example 12, 4-(5-((9-Benzyl-3,9-diazaspiro[5.5]undecan-3-yl)sulfonyl)pyridin-2-yl)morpholine]
> 1000	100 to 500	O=S(=O)(c1ccc(N2CCOCC2)nc1)N1CCC2(CCN(Cc3ccccc3)C2)CC1 [Example 13, 4-(5-((2-Benzyl-2,8-diazaspiro[4.5]decan-8-yl)sulfonyl)pyridin-2-yl)morpholine]
< 100	> 1000	C[C@@H]1CN(Cc2ccccc2)C[C@H]1NS(=O)(=O)c1ccc(N2CCOCC2)nc1 [Example 14, N-((3S,4R)-1-Benzyl-4-methylpyrrolidin-3-yl)-6-morpholinopyridine-3-sulfonamide]
> 1000	100 to 500	CN(CCc1ccccc1)C1CCN(S(=O)(=O)c2ccc(N3CCOCC3)nc2)CC1 [Example 15, N-Methyl-1-((6-morpholinopyridin-3-yl)sulfonyl)-N-phenethylpiperidin-4-amine]
< 100	> 1000	CN(C)c1ccc(S(=O)(=O)N[C@@H]2CCN(Cc3ccccc3)C2)cn1 [Example 22, (R)-N-(1-Benzylpyrrolidin-3-yl)-6-(dimethylamino) pyridine-3-sulfonamide]
< 100	> 1000	O=S(=O)(N[C@@H]1CCN(Cc2ccccc2)C1)c1ccc(N2C[C@@H]3C[C@H]2CO3)nc1 [Example 23, N-((R)-1-Benzylpyrrolidin-3-yl)-6-((1S,4S)-2-oxa-5-azabicyclo[2.2.1]heptan-5-yl)pyridine-3-sulfonamide]
< 100	500 to 1000	O=S(=O)(N[C@@H]1CCN(Cc2ccccc2)C1)c1cnc(N2CCOCC2)c(F)c1 [Example 24, (R)-N-(1-Benzylpyrrolidin-3-yl)-5-fluoro-6-morpholinopyridine-3-sulfonamide]
< 100	> 1000	O=S(=O)(N[C@H]1CCN(Cc2ccccc2)C1)c1cnc(N2CCOCC2)c(F)c1 [Example 25, (S)-N-(1-Benzylpyrrolidin-3-yl)-5-fluoro-6-morpholinopyridine-3-sulfonamide]

— US20240254115A1 (ACONDICIONAMIENTO TARRASENSE, priority 2021, published 2024)
